# Measurements taken from patent publication US20190048052A1, “ANTI-MICROBIAL PEPTIDES AND COATINGS” (Board of Regents of the University of Nebraska, priority 2016, published 2019).
# Like-named read-outs stand apart in the source and are kept apart here. Non-standard residues stand in square brackets, D forms with d. Residues, ends and D or L forms follow the SMILES beside them.
# How the values were obtained:
# MTS cytotoxicity assay [1] = type: cell-based; settings: human, HeLa CCL-2 cells
# Procedure: (§1) HeLa CCL-2 epithelial adenocarcinoma cells from American Type Culture Collection (ATCC) were maintained in DMEM high glucose media with 4 mM L-glutamine (NyClone) and 100 U/mL penicillin, 100 μg/mL streptomycin (pen/strep) (Life Technologies), and 10% (v/v) inactivated fetal bovine serum (FBS) (NyClone). Cells were grown in 5% CO2 at 37° C. and were detached from the culturing dish at 80% confluency using 0.025% trypsin-EDTA (NyClone) treatment. Peptide influence on the cell viability was estimated by using the MTS assay according to the manufacturer's protocol (MTS, CellTiter96® AQ One Solution Cell Proliferation Assay, Promega) with minor modifications and as described elsewhere (Mishra et al. (2015) RSC Advances 5:59758-59769). In short, cells were cultured in flat bottomed 96 well microtiter plates (Corning Life Science) at a seeding density of 20,000 cells/well. At confluence ˜100% achieved after 20-24 hours of cultivation, the cells were washed twice with 100 μL Dulbecco's Phosphate Buffered Saline (Life Technologies). Further, 90 μL of DMEM media with 10% FBS, pen/step was added before exposure to 10 μL of the peptide solution in the concentration range 12.5-100 μM. Plates were incubated at 37° C. After 1 hour, 10 μL MTS, CellTiter96® was added. Plates were further incubated for another 2 hours at 37° C. and finally, the absorbance was measured on ChroMate® reader (Awareness Technology) at 492 nm. Culture medium and 0.2% SDS were used as negative and positive controls, respectively.
# S. aureus USA300 [2] = type: cell-based, Staphylococcus aureus
# Procedure: The minimal bactericidal concentration (MBC) was determined by plating 50 μl of the content in the clear wells of the above MIC assays. MBC was determined on the petri dishes without bacterial colony formation after overnight growth (Wang et al. (2012) Biochemistry 51:653-664).
# S. aureus USA300 [3] = test: Propidium iodide membrane permeation; type: cell-based, Staphylococcus aureus
# Procedure: Fluorescence spectroscopy was also used to follow bacterial killing. In brief, a serially diluted 10× peptide (10 μL) was made in 96-well coming COSTAR microtiter plates. Propidium iodide (2 μL) was added at 50 μM to each well which was finally incubated with S. aureus USA300 bacteria (88 μL at a final OD600 ˜0.1) with continuous shaking at 100 rpm, 37° C. in a FLUOstar® Omega (BMG LABTECH Inc, NC) microplate reader. The plates were read every 5 minutes for a total duration of 2 hours with excitation and emission wavelengths at 584 nm and 620 nm respectively. Plots were made using averaged readings from duplicated experiments after subtraction of the media control.
# B. subtilis 168 = type: cell-based, Bacillus subtilis
# Procedure: (§2) The bacterial strains used here included Gram-positive bacteria Staphylococcus aureus USA300 LAC, Staphylococcus epidermidis 1457, Bacillus subtilis 168, and Gram-negative Escherichia coli K12. Clinical strains of S. aureus, including Mu50, UAMS-1 and Newman, were also evaluated.
# (§3) The antimicrobial activity of peptides was evaluated using a standard broth microdilution protocol (Wang, G. (2008) J. Biol. Chem., 283:32637-32643). In brief, exponential phase bacteria at 10^6 CFU were incubated with serially diluted peptides overnight for ˜20 hours at 37° C. The plates were read on a ChroMate® 4300 Microplate Reader at 630 nm (GMI, Ramsey, Minn.). […] In addition, the effects of human serum (up to 10%), pH (6.8, 7.4 and 8.0) and 150 mM sodium chloride (NaCl) on MICs against S. aureus USA300 were also evaluated (Mishra et al. (2015) RSC Advances 5:59758-59769).
# C. tropicalis ATCC 13803 = type: cell-based, Candida tropicalis; settings: ATCC 13803, 48 h
# Procedure: (§4) Fungal strains used in this study include Candida albicans ATCC 10231, C. glabrata ATCC 2001 and C. tropicalis ATCC 13803. The fungi were grown in Remel Dex broth (Thermo Fisher Scientific, KS). Antifungal assays were conducted essentially as described for antibacterial assays above, except for a higher starting density at an OD600 0.02 and a longer incubation time of ˜48 hours prior to microplate reading (Mishra et al. (2015) RSC Advances 5:59758-59769).
# [4] = system: Candida albicans ATCC 10231; type: cell-based; settings: ATCC 10231, 48 h
# Procedure: as §4
# S. aureus USA300 [5] = type: cell-based, Staphylococcus aureus; settings: for Antimicrobial activity (MIC) 150 mM NaCl / Antimicrobial activity (MIC) USA300 / MIC S. aureus USA300: USA300; for Antimicrobial activity (MIC) pH 6.8: USA300, pH 6.8; for Antimicrobial activity (MIC) Normal medium (pH 7.4): USA300, pH 7.4; for Antimicrobial activity (MIC) pH 8: USA300, pH 8
# Procedure: as §2, §3
# S. aureus Mu50 = type: cell-based, Staphylococcus aureus
# Procedure: as §2, §3
# S. aureus UAMS-1 = type: cell-based, Staphylococcus aureus
# Procedure: as §2, §3
# S. aureus Newman = type: cell-based, Staphylococcus aureus
# Procedure: as §2, §3
# E. coli K12 = type: cell-based, Escherichia coli
# Procedure: as §2, §3
# S. epidermidis 1457 = type: cell-based, Staphylococcus epidermidis
# Procedure: as §2, §3
# Hemolytic assay = type: cell-based; settings: red blood cells, hemolysis
# Procedure: Hemolytic analysis of selected peptides was performed using an established protocol (Mishra et al. (2015) RSC Advances 5:59758-59769). Briefly, human blood cells (UNMC Blood Bank) were washed three times with phosphate buffer saline (PBS) and diluted to a 2% solution. After peptide treatment, incubation at 37° C. for one hour, and centrifugation at 13,000 rpm, aliquots of the supernatant were transferred to a fresh 96-well microplate. To assess peptide cytotoxicity, the amount of hemoglobin released was measured at 545 nm. The percent lysis was calculated by assuming 100% release when human blood cells were treated with 1% TRITON™ X-100, and 0% release when incubated with PBS buffer. The hemolytic assays using chicken, bovine, and porcine blood cells (Lampire Biological Laboratories, Inc.) were performed in the same manner.
# MTS cytotoxicity assay [6] = type: cell-based; settings: human
# Procedure: as §1
# Human skin HaCaT (immortalized keratinocyte from AddexBio, T0020001) and kidney HEK293 cells were also cultivated for cytotoxicity evaluation of the peptides in a similar manner.
# C. glabrata ATCC 2001 = type: cell-based, Candida glabrata; settings: ATCC 2001, 48 h
# Procedure: as §4
# proteinase K = target: T1, proteinase K (Parengyodontium album, UniProt P06873); test: Peptide stability to proteases (SDS-PAGE); type: in vitro ADME, fungal; settings: peptide:protease 40:1, 24 hours, 37° C.
# T1 construct: purchased Sigma or Fisher
# Procedure: (§5) When degraded, no peptide band could be detected on a 5% stacking/18% resolving tricine gel after 2-4 hours incubation at 37° C. Briefly, a solution (100 μL) containing 250 μM peptide and 6.25 μM protease (Sigma or Fisher) in 10 mM PBS buffer (pH 8) was incubated at 37° C. (peptide/protease molar ratio, 40:1). Aliquots (10 μL) of the reaction solutions were taken at 0, 6, and 24 hours and immediately mixed with 10 μL of 2× SDS loading buffer followed by boiling for 5 minutes to stop the reaction. […] After electrophoresis, the gel was stained by Brilliant Blue R-250 (Fisher) and destained to view the peptide bands.
# S. aureus V8 protease = target: T2, S. aureus V8 protease (Staphylococcus aureus, UniProt P0C1U8); type: in vitro ADME; settings: peptide:protease 40:1, 24 hours, 37° C.
# T2 construct: purchased Sigma or Fisher
# Procedure: as §5
# [7] = chicken, read-out: LC50 Chicken RBCs
# [8] = human, read-out: LC50 Human RBCs
# [9] = pig, read-out: LC50 Porcine RBCs
# T1 sequence (P06873 106-384): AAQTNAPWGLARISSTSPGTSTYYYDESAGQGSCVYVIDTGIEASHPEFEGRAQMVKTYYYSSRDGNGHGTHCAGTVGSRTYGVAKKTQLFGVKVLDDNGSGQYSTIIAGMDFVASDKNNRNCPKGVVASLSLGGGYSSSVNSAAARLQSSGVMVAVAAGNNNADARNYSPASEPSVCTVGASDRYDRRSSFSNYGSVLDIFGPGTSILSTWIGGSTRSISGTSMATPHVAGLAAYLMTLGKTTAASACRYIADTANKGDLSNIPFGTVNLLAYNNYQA
# T2 sequence (P0C1U8 69-336): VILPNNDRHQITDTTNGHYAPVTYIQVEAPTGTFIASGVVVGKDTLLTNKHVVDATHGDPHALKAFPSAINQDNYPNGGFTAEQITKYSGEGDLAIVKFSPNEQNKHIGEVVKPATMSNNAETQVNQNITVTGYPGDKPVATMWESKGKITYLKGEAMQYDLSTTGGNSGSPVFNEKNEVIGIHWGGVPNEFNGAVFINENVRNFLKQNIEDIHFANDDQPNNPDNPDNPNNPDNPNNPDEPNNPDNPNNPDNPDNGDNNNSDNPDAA
SMILES,CC50 at 1 hour (MTS cytotoxicity assay [1]) [µM],MBC S. aureus USA300 (S. aureus USA300 [2]; USA300) [µM],MIC B. subtilis 168 (B. subtilis 168) [µM],MIC Candida tropicalis (C. tropicalis ATCC 13803) [µM],MIC Candida albicans [4] [µM],Antimicrobial activity (MIC) 150 mM NaCl (S. aureus USA300 [5]) [µM],Antimicrobial activity (MIC) USA300 (S. aureus USA300 [5]) [µM],MIC S. aureus USA300 (S. aureus USA300 [5]) [µM],Antimicrobial activity (MIC) pH 6.8 (S. aureus USA300 [5]) [μM],Antimicrobial activity (MIC) Normal medium (pH 7.4) (S. aureus USA300 [5]),Antimicrobial activity (MIC) pH 8 (S. aureus USA300 [5]) [μM],Antimicrobial activity (MIC) Mu50 (S. aureus Mu50) [µM],Antimicrobial activity (MIC) UAMS-1 (S. aureus UAMS-1) [µM],Antimicrobial activity (MIC) Newman (S. aureus Newman) [µM],MIC E. coli K12 (E. coli K12; K12) [µM],MIC S. epidermidis 1457 (S. epidermidis 1457) [µM],CC50 at 1 hour (Hemolytic assay; [7]) [µM],CC50 at 1 hour (Hemolytic assay; [8]) [µM],CC50 at 1 hour (Hemolytic assay; [9]) [µM],CC50 at 1 hour (MTS cytotoxicity assay [6]; HEK293 cells) [µM],further results
"CC[C@H](C)[C@H](NC(=O)[C@H](CCCCN)NC(=O)[C@H](CCCCN)NC(=O)[C@H](CC(C)C)NC(=O)[C@H](Cc1c[nH]c2ccccc12)NC(=O)[C@H](Cc1c[nH]c2ccccc12)NC(=O)[C@@H](N)Cc1c[nH]c2ccccc12)C(=O)N[C@@H](Cc1c[nH]c2ccccc12)C(N)=O [TetraF2W-KK, WWWLKKIW] (H-WWWLKKIW-NH2; N-terminus and C-terminus assumed)",70,>25,6.2,1.6,6.2,3.1 to 6.2,3.1 to 6.2,3.1 to 6.2,12.5,3.1-6.2 μM,3.1,6.2,6.2,6.2,12.5 to 25,6.2,50,40,55,50,MBC S. aureus USA300 (S. aureus USA300 [2]): > 25 µM; propidium iodide fluorescence change after treatment (S. aureus USA300 [3]): least potent; CC50 at 1 hour (MTS cytotoxicity assay [6]; HaCaT cells): 50 µM; MIC Candida glabrata (C. glabrata ATCC 2001): 6.2 to 12.5 µM
"CC[C@@H](C)[C@@H](NC(=O)[C@@H](CCCCN)NC(=O)[C@@H](CCCNC(=N)N)NC(=O)[C@@H](CC(C)C)NC(=O)[C@@H](Cc1c[nH]c2ccccc12)NC(=O)[C@@H](Cc1c[nH]c2ccccc12)NC(=O)[C@H](N)Cc1c[nH]c2ccccc12)C(=O)N[C@H](Cc1c[nH]c2ccccc12)C(N)=O [TetraF2W-RK-d, wwwlrkiw] (H-[dW][dW][dW][dL][dR][dK][dI][dW]-NH2; N-terminus and C-terminus assumed)",–,12.5,3.1,–,–,–,–,3.1,–,–,–,–,–,–,6.2,6.2,–,–,–,–,stability to fungal proteinase K (proteinase K): remained stable; MIC E. coli K12 (E. coli K12): 6.2 µM; stability to S. aureus V8 protease (S. aureus V8 protease): remained stable
"CC[C@H](C)[C@H](NC(=O)[C@H](CCCNC(=N)N)NC(=O)[C@H](CCCCN)NC(=O)[C@H](CC(C)C)NC(=O)[C@H](Cc1c[nH]c2ccccc12)NC(=O)[C@H](Cc1c[nH]c2ccccc12)NC(=O)[C@@H](N)Cc1c[nH]c2ccccc12)C(=O)N[C@@H](Cc1c[nH]c2ccccc12)C(N)=O [TetraF2W-KR, WWWLKRIW] (H-WWWLKRIW-NH2; N-terminus and C-terminus assumed)",100,12.5,6.2,3.1 to 6.2,12.5,3.1,3.1,3.1,6.2,3.1 μM,3.1,6.2,6.2,3.1 to 6.2,12.5 to 25,12.5,35,30,50,55,change in MIC on drop of pH from 8 to 6.8 (S. aureus USA300 [5]; S. aureus USA300): two-fold; CC50 at 1 hour (MTS cytotoxicity assay [6]; HaCaT cells): 60 µM; MIC Candida glabrata (C. glabrata ATCC 2001): 12.5 µM
